Earlier results, collected in paper PMC8583936, “Machine Learning Assisted Approach for Finding Novel High Activity Agonists of Human Ectopic Olfactory Receptors” (International Journal of Molecular Sciences, 2021).
Like-named read-outs stand apart in the source and are kept apart here.

Assays:
[1] = target: T1, OR1A1 (Homo sapiens, UniProt Q9P1Q5); conditions: cited from earlier work
T1 sequence (Q9P1Q5 1-309): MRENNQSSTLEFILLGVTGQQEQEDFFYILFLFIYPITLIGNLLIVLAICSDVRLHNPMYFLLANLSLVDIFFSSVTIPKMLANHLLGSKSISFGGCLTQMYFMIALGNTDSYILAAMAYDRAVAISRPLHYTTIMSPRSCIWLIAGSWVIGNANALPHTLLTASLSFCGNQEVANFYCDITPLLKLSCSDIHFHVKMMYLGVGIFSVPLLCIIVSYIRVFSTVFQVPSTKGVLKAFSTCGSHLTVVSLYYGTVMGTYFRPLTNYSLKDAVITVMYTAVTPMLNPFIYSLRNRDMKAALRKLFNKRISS

[2] = target: T2, OR2W1 (Homo sapiens, UniProt Q9Y3N9); conditions: cited from earlier work
T2 sequence (Q9Y3N9 1-320): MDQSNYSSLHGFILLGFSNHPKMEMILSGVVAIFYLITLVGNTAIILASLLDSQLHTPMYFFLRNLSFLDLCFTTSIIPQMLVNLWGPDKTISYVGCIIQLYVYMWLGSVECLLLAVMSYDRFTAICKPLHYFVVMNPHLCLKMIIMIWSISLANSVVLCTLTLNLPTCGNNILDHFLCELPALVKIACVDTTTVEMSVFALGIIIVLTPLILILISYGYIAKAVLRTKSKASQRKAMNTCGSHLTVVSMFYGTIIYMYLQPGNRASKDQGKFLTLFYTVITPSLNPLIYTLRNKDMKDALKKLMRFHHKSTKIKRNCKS

[3] = Table S1, ref Supplement references [1]-[9] as printed after each odorant name
[4] = Table S2, ref Supplement references [2]-[12] as printed after each odorant name

| Molecule | Class (agonist / non-agonist / conflicting info.) for OR1A1 [1, 3] | Class (agonist / non-agonist / antagonist / conflicting info.) for OR2W1 [2, 4] | Class (agonist / non-agonist / antagonist / conflicting info.) for OR2W1 ([2]; Table S2, ref Supplement references [2]-[12] as printed after each odorant name, listed as Capric acid) | Class (agonist / non-agonist / conflicting info.) for OR1A1 [1] | Class (agonist / non-agonist / antagonist / conflicting info.) for OR2W1 [2] |
| --- | --- | --- | --- | --- | --- |
| CCCCCCC(=O)OCCCC [Butyl heptanoate] | Non-agonist | Non-agonist |  |  |  |
| CCCCCC(C)=O [2-heptanone] | Conflicting info. | Conflicting info. |  |  |  |
| CC(=O)OCCc1ccccc1 [2-Phenylethyl acetate] | Agonist | Agonist |  |  |  |
| c1ccccc1 [Benzene] | Conflicting info. | Non-agonist |  |  |  |
| CCCCCCCCCC(=O)O [Decanoic acid / capric acid] | Non-agonist |  | Conflicting info. |  |  |
| CCC/C=C/C=O [2-hexenal, (2e)-] | Non-agonist | Non-agonist |  |  |  |
| (S)-(-)-citronellol |  |  |  | Agonist | Agonist |
| CCCCCOC(=O)CCCCC [Amyl hexanoate] | Conflicting info. | Non-agonist |  |  |  |
| CC(=O)C(C)O (stereo not shown) [Acetoin] | Non-agonist | Non-agonist |  |  |  |
| CCCCC(=O)CC [3-heptanone] | Agonist | Agonist |  |  |  |
| CCCC/C=C/C=O [(E)-2-heptenal] | Non-agonist | Agonist |  |  |  |
| CCO [Ethanol] | Non-agonist | Non-agonist |  |  |  |
| CCCCCC(C)O (stereo not shown) [2-heptanol] | Non-agonist | Agonist |  |  |  |
| CC(C)[C@@H]1CC[C@@H](C)CC1=O [Menthone] | Conflicting info. | Non-agonist |  |  |  |
| CCCCC(C)CCC(=O)O (stereo not shown) [4-Methyloctanoic acid] | Non-agonist | Non-agonist |  |  |  |
| CCc1ccc(O)cc1 [4-ethylphenol] | Non-agonist | Non-agonist |  |  |  |
| CCc1ncc(C)nc1CC [2,3-dietyl-5-methylpyrazine] | Non-agonist | Non-agonist |  |  |  |
| (-)-Fenchone | Non-agonist | Non-agonist |  |  |  |
| CCCc1ccc(O)c(OC)c1 [2-methoxy-4-propylphenol] |  |  |  | Non-agonist | Non-agonist |
| CCC(C(=O)O)c1ccccc1 (single isomer, unassigned; (+)) [(+)-2-Phenylbutyric acid] | Non-agonist | Non-agonist |  |  |  |
| SCc1cccs1 [Thenyl mercaptan] | Non-agonist | Non-agonist |  |  |  |
| CCCC(=O)OC [Methyl butyrate] |  |  |  | Non-agonist | Non-agonist |

| Molecule | Class (agonist / non-agonist / conflicting info.) for OR1A1 [1, 3] | Class (agonist / non-agonist / antagonist / conflicting info.) for OR2W1 [2, 4] | Class (agonist / non-agonist / antagonist / conflicting info.) for OR2W1 ([2]; Table S2, ref Supplement references [2]-[12] as printed after each odorant name, listed as Capric acid) | Class (agonist / non-agonist / conflicting info.) for OR1A1 [1] | Class (agonist / non-agonist / antagonist / conflicting info.) for OR2W1 [2] |
| --- | --- | --- | --- | --- | --- |
| CC1=CCC(C(C)(C)S)CC1 (stereo not shown) [1-p-Menthene-8-thiol] | Non-agonist | Non-agonist |  |  |  |
| O=c1cc(O)c2ccccc2o1 [4-hydroxycoumarin] |  |  |  | Non-agonist | Non-agonist |
| CC(S)CCS (stereo not shown) [1,3-butane dithiol] | Non-agonist | Non-agonist |  |  |  |
| CCCO [1-propanol] | Non-agonist | Non-agonist |  |  |  |
| Isoeugenol |  |  |  | Non-agonist | Non-agonist |
| O=C(O)CCCCCCCC(=O)O [Nonanedioic acid] | Non-agonist | Non-agonist |  |  |  |
| CCCCC=O [Pentanal] | Non-agonist | Non-agonist |  |  |  |
| CCCCCC1CCCC(=O)O1 (stereo not shown) [Delta-decalactone] | Non-agonist | Non-agonist |  |  |  |
| CCCCCCCCCO [Nonanol] | Non-agonist | Agonist |  |  |  |
| COc1nccnc1CC(C)C [2-isobutyl-3-methoxypyrazine] | Non-agonist | Non-agonist |  |  |  |
| CCOC(=O)/C=C/c1ccccc1 [Ethyl cinnamate] | Non-agonist | Non-agonist |  |  |  |
| CCCCCCCOC(=O)C(C)C [Heptyl isobutyrate] |  |  |  | Non-agonist | Non-agonist |
| O=C(O)C=Cc1ccc(O)cc1 [P-Coumaric acid] | Non-agonist | Non-agonist |  |  |  |
| CC(C)c1ccc(C=O)cc1 [Cuminaldehyde] | Non-agonist | Non-agonist |  |  |  |
| C=CCc1ccc(OC)cc1 [Estragole] |  |  |  | Agonist | Agonist |
| CC(=O)C(C)=O [Diacetyl] | Non-agonist | Non-agonist |  |  |  |
| Ethyl 3-methylthiopropionate | Non-agonist | Non-agonist |  |  |  |
| C=CCOC(=O)Cc1ccccc1 [Allyl phenylacetate] |  |  |  | Agonist | Agonist |
| CC(=O)c1ccccc1N [2'-aminoacetophenone] |  |  |  | Non-agonist | Non-agonist |
| CCCCCCC(C)=O [2-octanone] | Agonist | Agonist |  |  |  |
| CCCC(=O)OCC [Ethyl butyrate] | Non-agonist | Non-agonist |  |  |  |
| CC(C)CO [Isobutyl alcohol] | Non-agonist | Non-agonist |  |  |  |
